From patent EP3383875B1, “3-PYRIMIDINYL PYRROLO [2,3-B] PYRIDINE AS ANTICANCER AGENTS AND THE PROCESS FOR THE PREPARATION THEREOF” (Council Of Scientific & Industrial Research, priority 2015, dated 2017)
Like-named read-outs stand apart in the source and are kept apart here.

Columns and labels:
MCF-7 = test: MTT assay on cancer cell line MCF-7; assay type: cell-based, Human; conditions: for inhibition at 10 µM: Homo sapiens; for In vitro cell inhibition, % of inhibition, MCF-7: at 10µM
Protocol: (§1) Cell culture, growth conditions and treatments. […] Different molecules were dissolved in DMSO and were delivered to cell cultures in complete medium.

PC-3 = test: MTT assay on cancer cell line PC-3; assay type: cell-based, human; conditions: for inhibition at 10 µM: Homo sapiens, read-out: In vitro cell inhibition, % of inhibition, PC-3; for In vitro cell inhibition, % of inhibition, PC-3: at 10µM
Protocol: as §1

MDA-MB435 = test: MTT assay on cancer cell line MDA-MB435; assay type: cell-based, Human; conditions: MDA-MB435, at 10µM; for inhibition at 10 µM: Homo sapiens, MDA-MB-435, read-out: In vitro cell inhibition, % of inhibition, MDA-MB435
Protocol: as §1

HCT-116 = test: MTT assay on cancer cell line HCT-116; assay type: cell-based, human; conditions: at 10µM; for inhibition at 10 µM: Homo sapiens, read-out: In vitro cell inhibition, % of inhibition, HCT-116
Protocol: as §1

SHSY-5Y = test: MTT assay on cancer cell line SHSY-5Y; assay type: cell-based, human; conditions: for inhibition at 10 µM: Homo sapiens, SH-SY5Y; for In vitro cell inhibition, % of inhibition, SHSY-5Y: at 10µM
Protocol: as §1

CDK-9/Cyclin T1 = CDK-9/Cyclin T1 (Homo sapiens, UniProt P50750); test: CDK inhibition assay, CDK-9/Cyclin T1 against substrate peptide, 33P-ATP; assay type: biochemical; conditions: at 500 nM; Table-6
Chain of CDK-9/Cyclin T1 (P50750 whole entry): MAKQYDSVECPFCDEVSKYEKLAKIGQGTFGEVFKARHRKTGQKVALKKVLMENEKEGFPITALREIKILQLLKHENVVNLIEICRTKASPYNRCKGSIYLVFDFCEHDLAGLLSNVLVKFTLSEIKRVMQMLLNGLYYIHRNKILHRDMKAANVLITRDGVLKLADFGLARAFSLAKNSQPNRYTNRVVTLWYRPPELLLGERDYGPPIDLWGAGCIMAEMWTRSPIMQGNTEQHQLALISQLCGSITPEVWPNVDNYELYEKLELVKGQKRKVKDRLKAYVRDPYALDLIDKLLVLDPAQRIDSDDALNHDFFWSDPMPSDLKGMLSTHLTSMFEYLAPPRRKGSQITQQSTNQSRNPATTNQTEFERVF
Chain of CDK-9/Cyclin T1 (O60563 whole entry partner): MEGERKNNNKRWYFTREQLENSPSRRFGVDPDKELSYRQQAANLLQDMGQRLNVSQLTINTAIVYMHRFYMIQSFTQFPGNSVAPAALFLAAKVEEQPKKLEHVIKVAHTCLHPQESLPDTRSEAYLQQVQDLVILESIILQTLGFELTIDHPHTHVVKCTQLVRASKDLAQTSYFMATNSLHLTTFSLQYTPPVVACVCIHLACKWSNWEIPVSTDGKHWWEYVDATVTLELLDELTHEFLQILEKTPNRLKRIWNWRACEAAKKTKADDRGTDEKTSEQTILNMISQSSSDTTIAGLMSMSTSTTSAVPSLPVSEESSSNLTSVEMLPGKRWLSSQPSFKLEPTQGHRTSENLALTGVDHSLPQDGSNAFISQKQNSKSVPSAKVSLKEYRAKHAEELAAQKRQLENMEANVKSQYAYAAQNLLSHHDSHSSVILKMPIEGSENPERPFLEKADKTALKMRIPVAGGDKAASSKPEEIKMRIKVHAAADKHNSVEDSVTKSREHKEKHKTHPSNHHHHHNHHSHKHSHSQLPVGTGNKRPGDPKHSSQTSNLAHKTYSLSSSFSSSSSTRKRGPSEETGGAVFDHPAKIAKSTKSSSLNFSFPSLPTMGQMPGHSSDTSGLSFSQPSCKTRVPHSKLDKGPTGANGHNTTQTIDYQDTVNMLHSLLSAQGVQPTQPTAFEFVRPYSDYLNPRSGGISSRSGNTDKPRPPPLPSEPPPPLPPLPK
Protocol: (50-1000 cpm/pmole) and incubated for 30 min at room temperature. Assays were stopped by addition of 5 µl of 0.5 M (3%) orthophosphoric acid and then harvested onto P81 Unifilter plates with a wash buffer of 50 mM orthophosphoric acid.

[1] = MCF7, MCF-7, Table 9 (for reference), read-out: In vitro cell inhibition, % of inhibition, MCF-7
[2] = MCF7, read-out: inhibition against MCF-7 cell lines
[3] = SHSY-5Y, Table 9 (for reference), read-out: In vitro cell inhibition, % of inhibition, SHSY-5Y
[4] = read-out: inhibition against SHSY-5Y cell lines

Row | Structure (SMILES) | inhibition at 10 µM (MCF-7; [1]) | inhibition at 10 µM (MCF-7; [2]) | inhibition at 10 µM (PC-3; Table 9 (for reference)) | inhibition at 10 µM (MDA-MB435; Table 9 (for reference)) | inhibition at 10 µM (HCT-116; Table 9 (for reference)) | inhibition at 10 µM (SHSY-5Y; [3]) | inhibition at 10 µM (SHSY-5Y; [4]) | In vitro CDK9 % of inhibition (CDK-9/Cyclin T1) | In vitro cell inhibition, % of inhibition, MCF-7 (MCF-7; Table 8) | In vitro cell inhibition, % of inhibition, MCF-7 (MCF-7; Table 9 (for reference)) | In vitro cell inhibition, % of inhibition, PC-3 (PC-3; Table 8) | In vitro cell inhibition, % of inhibition, PC-3 (PC-3; Table 9 (for reference)) | In vitro cell inhibition, % of inhibition, MDA-MB435 (MDA-MB435; Table 8) | In vitro cell inhibition, % of inhibition, MDA-MB435 (MDA-MB435; Table 9 (for reference)) | In vitro cell inhibition, % of inhibition, HCT-116 (HCT-116; Table 8) | In vitro cell inhibition, % of inhibition, HCT-116 (HCT-116; Table 9 (for reference)) | In vitro cell inhibition, % of inhibition, SHSY-5Y (SHSY-5Y; SHSY-5Y, Table 8) | In vitro cell inhibition, % of inhibition, SHSY-5Y (SHSY-5Y; SHSY-5Y, Table 9 (for reference))
1 | Cc1ccc(-c2cnc3[nH]cc(-c4ccnc(N)n4)c3c2)cc1 [1C6, 4-(5-(p-tolyl)-1H-pyrrolo[2,3-b]pyridin-3-yl)pyrimidin-2-amine] | > 70% | > 70% | > 50% | > 70% | > 70% | > 70% | > 70% |  |  |  |  |  |  |  |  |  |  | 
2 | Nc1nccc(-c2c[nH]c3ncc(-c4cc5ccccc5[nH]4)cc23)n1 [1C19, 4-(5-(1H-indol-2-yl)-1H-pyrrolo[2,3-b]pyridin-3-yl)pyrimidin-2-amine] | > 50% | > 70% | < 50% | > 50% | > 50% | > 70% | > 70% |  |  |  |  |  |  |  |  |  |  | 
3 | COc1ccc2[nH]c(-c3cnc4[nH]cc(-c5ccnc(N)n5)c4c3)cc2c1 [1C17, 4-(5-(5-methoxy-1H-indol-2-yl)-1H-pyrrolo[2,3-b]pyridin-3-yl)pyrimidin-2-amine] | > 70% | > 70% | > 50% | > 70% | > 70% | < 50% |  |  |  |  |  |  |  |  |  |  |  | 
4 | Nc1nccc(-c2c[nH]c3ncc(-c4cccc(F)c4)cc23)n1 [1C5, 4-(5-(3-fluorophenyl)-1H-pyrrolo[2,3-b]pyridin-3-yl)pyrimidin-2-amine] | > 70% | > 70% | < 50% | > 70% | > 70% | > 70% | > 70% |  |  |  |  |  |  |  |  |  |  | 
5 | Nc1nccc(-c2c[nH]c3ncc(-c4ccc(OC(F)(F)F)cc4)cc23)n1 [1C3, 4-(5-(4-(trifluoromethoxy)phenyl)-1H-pyrrolo[2,3-b]pyridin-3-yl)pyrimidin-2-amine] | > 70% | > 70% | > 50% | > 70% | > 70% | > 70% | > 70% |  |  |  |  |  |  |  |  |  |  | 
6 | Nc1nccc(-c2c[nH]c3ncc(-c4ccc(C(F)(F)F)cc4)cc23)n1 [1C1, 4-(5-(4-(trifluoromethyl)phenyl)-1H-pyrrolo[2,3-b]pyridin-3-yl)pyrimidin-2-amine] | > 50% | > 50% | > 50% | < 50% | > 50% | > 50% |  |  |  |  |  |  |  |  |  |  |  | 
7 | Nc1nccc(-c2c[nH]c3ncccc23)n1 [Meriolin 1, reference compound] |  |  |  |  |  |  |  | +++ (+++ indicates greater than 70% of inhibition (+++ >70% of inhibition)) | ++ (++ indicates greater than 50% of inhibition (++ >50% of inhibition)) | ++ (++ indicates greater than 50% of inhibition (++ > 50% of inhibition)) | ++ (++ indicates greater than 50% of inhibition (++ >50% of inhibition)) | ++ (++ indicates greater than 50% of inhibition (++ > 50% of inhibition)) | ++ (++ indicates greater than 50% of inhibition (++ >50% of inhibition)) | ++ (++ indicates greater than 50% of inhibition (++ > 50% of inhibition)) | ++ (++ indicates greater than 50% of inhibition (++ >50% of inhibition)) | ++ (++ indicates greater than 50% of inhibition (++ > 50% of inhibition)) | +++ (+++ indicates greater than 70% of inhibition (+++ >70% of inhibition)) | +++ (+++ indicates greater than 70% of inhibition (+++ >70% of inhibition))
